Like-named read-outs stand apart in the source and are kept apart here.
Assays:
CYP3A [1] = conditions: mean of four human hepatocyte donors; three-parameter fit; Indmax = Emax + 1
CYP3A [2] = conditions: mean of four human hepatocyte donors; three-parameter fit; Indmax = Emax + 1; remark: listed apart in the source
[3] = human, in vivo
[4] = cited from earlier work
[5] = cited from earlier work; remark: listed apart in the source
[6] = cited from earlier work; remark: listed apart in the source
CYP2C9 = tested on: CYP2C9; design: method as in ref (Sahi et al., 2009); conditions: ref (Sahi et al., 2009), cited from earlier work
CYP2B6 = tested on: CYP2B6; design: method as in ref (Hariparsad et al., 2008); conditions: ref (Hariparsad et al., 2008), cited from earlier work
CYP3A [7] = test: in vitro; conditions: human, cryopreserved human hepatocytes, probe testosterone (6β-hydroxytestosterone formation)
CYP3A [8] = test: in vitro; conditions: human, cryopreserved human hepatocytes
in vitro = conditions: human, human liver microsomes
[9] = ref Meta-analysis (Odar-Cederlof and Borga, 1974); (Tassaneeyakul et al., 1992); (Ducharme et al., 1995) and 3 others; cited from earlier work
[10] = ref (Kurata and Wilkinson, 1974); cited from earlier work
[11] = Monoprotic Acid; ref Meta-analysis (Pade and Stavchansky, 1998); (Avdeef et al., 2000); (Taillardat-Bertschinger et al., 2002); (Loeuillet-Ritzler and Faller, 2004); cited from earlier work
rCYP2C9 [12] = conditions: read-out: rCYP2C9 Km; ref (Rowland et al., 2008); cited from earlier work
rCYP2C19 [13] = conditions: read-out: rCYP2C19 Km; ref (Giancarlo et al., 2001); (Bajpai et al., 1996); cited from earlier work
rCYP2C9 [14] = test: Recombinant enzyme metabolism kinetics, rCYP2C9; conditions: Calculated from CLiv using retrograde model
rCYP2C19 [15] = test: Recombinant enzyme metabolism kinetics, rCYP2C19; conditions: Calculated from CLiv using retrograde model

Which results are given for `CCC1(c2ccccc2)C(=O)NC(=O)NC1=O` [Phenobarbital, phenobarbital]?
Activity Indmax (CYP3A [1]): 21.1 fold; mRNA Indmax (CYP3A [2]): 44.2 fold; ka [3]: 2 h⁻¹; fa ([4]; ref (Varma et al., 2012)): 1; Vss (Minimal PBPK) ([5]; in vivo): 0.54 L/kg; CLR ([6]; in vivo): 0.07 L/h; fe ([6]; in vivo): 0.24

With `O=C1NC(=O)C(c2ccccc2)(c2ccccc2)N1` [Phenytoin, phenytoin] as the compound, how does the “Activity Indmax” value (CYP3A [1]) read?
Its value is 13.6 fold.

What about the “mRNA Indmax” value (CYP3A [2]) of the same compound?
Its value is 24.5 fold.

And the “CYP2C9 Indmax (Fold, Emax +1)” value (CYP2C9)?
The value was 10.7 Fold.

What about the EC50 (CYP2C9; read-out: CYP2C9 IndC50) of the same compound?
Its EC50 is 9.8 µM.

What about the “CYP2B6 Indmax (Fold, Emax +1)” value (CYP2B6) of the same compound?
The value was 1.9 Fold.

What about the EC50 (CYP2B6; read-out: CYP2B6 IndC50) of the same compound?
Its EC50 is 15.3 µM.

And the EC50 (CYP3A [7])?
The EC50 was 51.3 µM.

What about the EC50 (CYP3A [8]) of the same compound?
Its EC50 is 123 µM.

And the microsomal CLint (in vitro)?
Its microsomal CLint is 0.97 µL/min/mg.

And the fu [9]?
The fu was 0.10.

What about the “B:P” value [10] of the same compound?
Its value is 0.61.

What about the “pKa(s)” value [11] of the same compound?
Its value is 8.15.

What about the fa ([4]; ref (Bochner et al., 1973)) of the same compound?
The fa was 0.9.

And the ka ([4]; ref (Tassaneeyakul et al., 1992))?
The ka was 0.53 h⁻¹.

What about the “Vss (Minimal PBPK)” value ([5]; ref Meta-analysis (Gugler et al., 1976), (Odar-Cederlof and Borga, 1974), (Glazko et al., 1969), (Lund et al., 1974), (Perucca et al., 1978)) of the same compound?
Its value is 0.57 L/kg.

And the CLR ([6]; from fe 0.008, ref (Kozelka and Hine, 1943), (Borga et al., 1979))?
Its CLR is 0.015 L/h.

And the fe ([6]; ref (Kozelka and Hine, 1943), (Borga et al., 1979))?
The fe was 0.008.

And the CLiv ([6]; ref Meta-analysis (Gugler et al., 1976), (Glazko et al., 1969), (Lund et al., 1974), (Perucca et al., 1978))?
The CLiv was 1.88 L/h.

What about the Km (rCYP2C9 [12]) of the same compound?
Its Km is 4.1 µM.

And the Km (rCYP2C19 [13])?
The Km was 36.8 µM.

And the “rCYP2C9 Vmax” value (rCYP2C9 [14])?
The value was 0.24 pmol/min/pmol.

And the “rCYP2C19 Vmax” value (rCYP2C19 [15])?
Its value is 1.53 pmol/min/pmol.

Source: article PMC4885489, “Prediction of Drug-Drug Interactions Arising from CYP3A induction Using a Physiologically Based Dynamic Model” (Drug Metabolism and Disposition, 2016)
